Patent US8846750B2, “Pharmaceutical and food compositions for preventing or treating diabetes or obesity” (Korea Ocean Research and Development Institute, priority 2010, dated 2014)

Key:
TC-PTP (PTPN2) = target: T1, TC-PTP (PTPN2) (Homo sapiens, UniProt P17706); experiment: Selectivity for protein tyrosine phosphatases: TC-PTP (PTPN2); type: biochemical; settings: 0, 50, 100 or 200 nM tested
T1 construct: purchased Bioneer, Korea
T1 sequence (P17706 1-415): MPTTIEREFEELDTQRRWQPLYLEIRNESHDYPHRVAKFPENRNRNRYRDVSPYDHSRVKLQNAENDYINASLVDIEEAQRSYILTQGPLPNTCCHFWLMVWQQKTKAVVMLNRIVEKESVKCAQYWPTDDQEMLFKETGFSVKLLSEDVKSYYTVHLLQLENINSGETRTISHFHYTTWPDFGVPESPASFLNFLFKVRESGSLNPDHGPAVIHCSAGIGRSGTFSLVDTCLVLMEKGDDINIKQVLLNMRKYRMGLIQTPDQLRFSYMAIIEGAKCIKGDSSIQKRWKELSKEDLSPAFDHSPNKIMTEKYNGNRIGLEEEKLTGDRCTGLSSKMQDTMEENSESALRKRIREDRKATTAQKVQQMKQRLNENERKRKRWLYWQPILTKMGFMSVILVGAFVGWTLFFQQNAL
Method: In order to examine the selectivity of sodium lobarate for protein tyrosine phosphatases, the inhibitory activities of sodium lobarate against PTP-1b, PTPN2, PTPN5, PTPN6, PTPN7 and PTPN13 were examined by spectroscopically measuring the activities of the enzymes.
Specifically, to 0.5 mg/Ml of PTP-1b, PTPN2, PTPN5, PTPN6, PTPN7 or PTPN13 (Bioneer, Korea) in protein tyrosine phosphatase buffer (20 mM Tris-Hcl, pH 8.0, 0.75 mM NaCl, 0.5 mM EDTA, 5 mM β-mercaptoethanol, 50% glycerol), 0, 50, 100 or 200 nM sodium lobarate and the substrate [pTyr1146] insulin receptor (1142-1153, Sigma, USA) were added. Then, each of the mixtures was allowed to react at room temperature for 10-30 minutes, and then malachite green-molybdate dye solution (Sigma, USA) was added thereto and reacted at room temperature for 10 minutes. After completion of the reaction with the substrate, the absorbance at 620 nm was measured. […]
Specifically, to 0.5 mg/Ml of PTP-1b, PTPN2, PTPN5, PTPN6, PTPN7 or PTPN13 (Bioneer, Korea) in protein tyrosine phosphatase buffer (20 mM Tris-Hcl, pH 8.0, 0.75 mM NaCl, 0.5 mM EDTA, 5 mM β-mercaptoethanol, 50% glycerol), 0, 50, 100 or 200 nM Lobarin and the substrate [pTyr1146] insulin receptor (1142-1153, Sigma, USA) were added. […] After completion of the reaction with the substrate, the absorbance at 620 nm was measured. […]

Solubility in water = type: physicochemical; settings: dissolved in water
Method: 10 mg (22 umol) of the lobaric acid obtained in Example 1-2 was dissolved in 3 ml of acetone, and 50 ul of 1M NaHCO3 was added thereto, followed by stirring for 1-2 minutes. The solid precipitated on adding the NaHCO3 was filtered out, immediately after which it was completely concentrated by a rotary evaporator. After completion of the concentration, sodium lobarate (<10 mg) could be obtained as a white solid. Then, in order to remove excess salt from the product to increase the purity, the product was analyzed by reverse phase HPLC using Agilent Eclipse XDB-C18 column (4.6×150 mm, USA). The solvent system used in the analysis was composed of line A and line B which supplied 0.1% formic acid-containing water and 0.1% formic acid-containing acetonitrile, respectively. The elution conditions were as follows: 40% to 50% acetonitrile for 5 min; 50% to 80% acetonitrile for 15 min; and 80% to 90% acetonitrile for 10 min. The final purity was 92.1% (see FIG. 1).

| Structure (SMILES) | inhibitory activity against TC-PTP (PTPN2) (TC-PTP (PTPN2)) | water solubility (Solubility in water) |
| --- | --- | --- |
| CCCCCc1c(Oc2cc(OC)cc3c2C(=O)OC3(O)CCCC)c(O)cc(O)c1C(=O)O (stereo not drawn) [Lobarin] | no inhibitory activity | – |
| CCCCCc1c2c(cc(O)c1C(=O)[O-])OC(=O)c1c(cc(OC)cc1C(=O)CCCC)O2.[Na+] [sodium lobarate] | – | water-soluble |
| CCC/C=C1/OC(=O)c2c(Oc3c(O)cc(O)c(C(=O)O)c3CCCCC)cc(OC)cc21 [Lobarstin] | no inhibitory activity | – |
